Data: EP4722207A1, “OXOISOINDOLINYL-SUBSTITUTED TETRAHYDROPYRIMIDINEDIONE DERIVATIVE AND USE THEREOF” (Gluetacs Therapeutics (Shanghai) Co., Ltd., priority 2023, dated 2024)

Columns and labels:
Format in all cases: cell-based
Conditions in all cases: 24 hours of compound treatment, 50 nM and 500 nM
[1] = target: T1, WEE1 (Homo sapiens, UniProt P30291+Q96SW2); experiment: Western-blot assay, substrate protein degradation in hPBMCs: WEE1
T1 construct: effects of the compounds of the present disclosure on the expression of target proteins in cells; endogenous in cells; host or cells: human PBMCs (hPBMCs)

[2] = target: T2, IKZF1 (Homo sapiens, UniProt Q13422+Q96SW2); experiment: Western-blot assay, substrate protein degradation in hPBMCs: IKZF1
T2 construct: effects of the compounds of the present disclosure on the expression of target proteins in cells; endogenous in cells; host or cells: human PBMCs (hPBMCs)

[3] = target: T3, IKZF2 (Homo sapiens, UniProt Q96SW2+Q9UKS7); experiment: Western-blot assay, substrate protein degradation in hPBMCs: IKZF2
T3 construct: effects of the compounds of the present disclosure on the expression of target proteins in cells; endogenous in cells; host or cells: human PBMCs (hPBMCs)

[4] = target: T4, IKZF3 (Homo sapiens, UniProt Q96SW2+Q9UKT9); experiment: Western-blot assay, substrate protein degradation in hPBMCs: IKZF3
T4 construct: effects of the compounds of the present disclosure on the expression of target proteins in cells; endogenous in cells; host or cells: human PBMCs (hPBMCs)

[5] = target: T5, CK1α (Homo sapiens, UniProt P48729+Q96SW2); experiment: Western-blot assay, substrate protein degradation in hPBMCs: CK1α
T5 construct: effects of the compounds of the present disclosure on the expression of target proteins in cells; endogenous in cells; host or cells: human PBMCs (hPBMCs)

[6] = target: T6, GSPT1 (Homo sapiens, UniProt P15170+Q96SW2); experiment: Western-blot assay, substrate protein degradation in hPBMCs: GSPT1
T6 construct: effects of the compounds of the present disclosure on the expression of target proteins in cells; endogenous in cells; host or cells: human PBMCs (hPBMCs)
T6 sequence (P15170 whole entry): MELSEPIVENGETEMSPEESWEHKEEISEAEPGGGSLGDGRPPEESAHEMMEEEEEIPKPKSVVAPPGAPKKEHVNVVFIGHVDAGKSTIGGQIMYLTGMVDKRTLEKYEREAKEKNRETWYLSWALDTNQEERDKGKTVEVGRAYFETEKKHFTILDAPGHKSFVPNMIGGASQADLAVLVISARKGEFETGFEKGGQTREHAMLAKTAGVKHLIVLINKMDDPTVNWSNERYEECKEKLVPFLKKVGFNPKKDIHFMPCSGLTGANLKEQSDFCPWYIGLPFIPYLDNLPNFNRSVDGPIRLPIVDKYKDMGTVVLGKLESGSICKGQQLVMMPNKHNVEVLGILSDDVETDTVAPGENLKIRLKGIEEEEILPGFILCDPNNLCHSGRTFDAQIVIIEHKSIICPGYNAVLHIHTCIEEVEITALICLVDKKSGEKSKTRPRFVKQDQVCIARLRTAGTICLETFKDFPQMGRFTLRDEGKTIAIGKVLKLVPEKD
T6 sequence (Q96SW2 whole entry): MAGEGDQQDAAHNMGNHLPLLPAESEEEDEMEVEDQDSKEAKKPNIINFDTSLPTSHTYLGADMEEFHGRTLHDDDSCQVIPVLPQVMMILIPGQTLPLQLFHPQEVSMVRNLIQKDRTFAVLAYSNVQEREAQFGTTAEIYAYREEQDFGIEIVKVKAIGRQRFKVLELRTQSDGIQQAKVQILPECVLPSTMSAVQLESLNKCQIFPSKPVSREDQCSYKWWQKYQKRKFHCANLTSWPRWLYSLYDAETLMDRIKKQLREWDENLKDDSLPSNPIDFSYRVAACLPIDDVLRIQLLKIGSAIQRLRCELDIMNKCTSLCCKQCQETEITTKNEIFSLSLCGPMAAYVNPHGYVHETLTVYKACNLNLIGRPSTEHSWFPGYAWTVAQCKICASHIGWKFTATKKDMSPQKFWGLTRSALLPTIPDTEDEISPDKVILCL
T6 sequence (Q16531 whole entry partner): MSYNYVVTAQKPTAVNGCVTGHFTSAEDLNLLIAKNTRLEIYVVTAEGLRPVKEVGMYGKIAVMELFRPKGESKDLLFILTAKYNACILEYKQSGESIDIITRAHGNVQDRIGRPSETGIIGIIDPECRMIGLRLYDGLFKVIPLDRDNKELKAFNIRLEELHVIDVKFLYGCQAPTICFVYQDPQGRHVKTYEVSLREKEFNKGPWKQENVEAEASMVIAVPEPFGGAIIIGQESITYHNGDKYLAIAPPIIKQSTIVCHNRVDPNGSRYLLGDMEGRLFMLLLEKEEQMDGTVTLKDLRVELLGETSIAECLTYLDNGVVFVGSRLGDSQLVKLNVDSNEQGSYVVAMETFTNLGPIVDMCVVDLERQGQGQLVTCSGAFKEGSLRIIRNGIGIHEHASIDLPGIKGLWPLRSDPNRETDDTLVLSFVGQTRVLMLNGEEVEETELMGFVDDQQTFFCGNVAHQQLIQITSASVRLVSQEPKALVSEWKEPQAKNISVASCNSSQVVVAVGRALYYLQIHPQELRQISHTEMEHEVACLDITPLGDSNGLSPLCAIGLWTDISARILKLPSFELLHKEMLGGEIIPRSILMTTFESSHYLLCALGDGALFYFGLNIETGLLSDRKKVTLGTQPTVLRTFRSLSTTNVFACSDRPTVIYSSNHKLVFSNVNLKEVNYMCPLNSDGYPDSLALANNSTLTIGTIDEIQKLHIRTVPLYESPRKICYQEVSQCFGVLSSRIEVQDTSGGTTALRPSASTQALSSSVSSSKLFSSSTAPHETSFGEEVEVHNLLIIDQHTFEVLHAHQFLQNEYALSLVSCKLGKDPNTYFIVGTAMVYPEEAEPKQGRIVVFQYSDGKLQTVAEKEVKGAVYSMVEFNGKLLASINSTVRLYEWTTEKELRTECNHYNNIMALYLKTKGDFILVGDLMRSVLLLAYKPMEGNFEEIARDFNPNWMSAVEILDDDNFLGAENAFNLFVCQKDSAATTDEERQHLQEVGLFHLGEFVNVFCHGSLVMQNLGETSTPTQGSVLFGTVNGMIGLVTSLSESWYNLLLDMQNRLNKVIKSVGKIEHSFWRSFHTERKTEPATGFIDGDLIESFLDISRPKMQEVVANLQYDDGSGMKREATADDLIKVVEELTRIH

T1 sequence (P30291 whole entry): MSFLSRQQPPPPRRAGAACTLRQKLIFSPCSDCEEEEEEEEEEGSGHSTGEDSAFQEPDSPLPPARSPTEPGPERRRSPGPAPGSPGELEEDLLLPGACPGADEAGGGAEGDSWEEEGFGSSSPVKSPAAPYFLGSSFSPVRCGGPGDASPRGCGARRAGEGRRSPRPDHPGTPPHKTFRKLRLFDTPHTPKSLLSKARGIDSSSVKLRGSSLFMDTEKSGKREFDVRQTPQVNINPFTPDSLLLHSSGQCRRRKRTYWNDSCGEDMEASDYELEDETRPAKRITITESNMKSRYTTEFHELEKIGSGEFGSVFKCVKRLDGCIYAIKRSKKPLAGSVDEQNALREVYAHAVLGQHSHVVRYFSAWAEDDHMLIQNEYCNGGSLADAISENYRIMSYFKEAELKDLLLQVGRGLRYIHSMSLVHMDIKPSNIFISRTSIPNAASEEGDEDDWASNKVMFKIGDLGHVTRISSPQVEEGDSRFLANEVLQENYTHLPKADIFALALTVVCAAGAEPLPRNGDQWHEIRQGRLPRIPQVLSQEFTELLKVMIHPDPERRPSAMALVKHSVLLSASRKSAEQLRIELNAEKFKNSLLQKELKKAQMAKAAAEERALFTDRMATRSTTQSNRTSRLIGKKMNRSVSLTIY
T1 sequence (Q96SW2 whole entry): as the sequence (Q96SW2 whole entry) above
T1 sequence (Q16531 whole entry partner): as the sequence (Q16531 whole entry partner) above
T5 sequence (P48729 whole entry): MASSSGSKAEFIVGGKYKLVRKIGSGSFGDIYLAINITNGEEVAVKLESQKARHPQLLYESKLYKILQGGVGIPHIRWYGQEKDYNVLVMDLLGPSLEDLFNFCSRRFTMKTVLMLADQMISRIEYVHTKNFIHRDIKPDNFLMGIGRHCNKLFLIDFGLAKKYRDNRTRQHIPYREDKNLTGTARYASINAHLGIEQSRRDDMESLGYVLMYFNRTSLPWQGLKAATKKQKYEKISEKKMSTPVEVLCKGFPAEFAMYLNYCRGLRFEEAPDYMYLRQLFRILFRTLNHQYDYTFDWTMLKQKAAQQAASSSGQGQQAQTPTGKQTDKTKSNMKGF
T5 sequence (Q96SW2 whole entry): as the sequence (Q96SW2 whole entry) above
T5 sequence (Q16531 whole entry partner): as the sequence (Q16531 whole entry partner) above
T4 sequence (Q9UKT9 whole entry): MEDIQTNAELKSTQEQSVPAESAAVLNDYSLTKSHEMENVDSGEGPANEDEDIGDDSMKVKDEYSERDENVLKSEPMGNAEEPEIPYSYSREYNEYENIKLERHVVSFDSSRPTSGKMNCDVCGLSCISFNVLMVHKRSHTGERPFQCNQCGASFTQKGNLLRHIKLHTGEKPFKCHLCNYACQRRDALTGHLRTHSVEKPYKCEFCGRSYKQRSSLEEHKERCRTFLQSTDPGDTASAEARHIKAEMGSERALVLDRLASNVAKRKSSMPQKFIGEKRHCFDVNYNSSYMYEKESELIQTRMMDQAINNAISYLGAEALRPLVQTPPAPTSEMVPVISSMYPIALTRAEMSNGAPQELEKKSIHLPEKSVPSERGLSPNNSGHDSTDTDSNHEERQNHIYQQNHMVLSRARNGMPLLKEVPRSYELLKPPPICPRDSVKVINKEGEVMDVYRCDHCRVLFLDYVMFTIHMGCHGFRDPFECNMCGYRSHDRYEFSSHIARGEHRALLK
T4 sequence (Q96SW2 whole entry): as the sequence (Q96SW2 whole entry) above
T4 sequence (Q16531 whole entry partner): as the sequence (Q16531 whole entry partner) above
T2 sequence (Q13422 whole entry): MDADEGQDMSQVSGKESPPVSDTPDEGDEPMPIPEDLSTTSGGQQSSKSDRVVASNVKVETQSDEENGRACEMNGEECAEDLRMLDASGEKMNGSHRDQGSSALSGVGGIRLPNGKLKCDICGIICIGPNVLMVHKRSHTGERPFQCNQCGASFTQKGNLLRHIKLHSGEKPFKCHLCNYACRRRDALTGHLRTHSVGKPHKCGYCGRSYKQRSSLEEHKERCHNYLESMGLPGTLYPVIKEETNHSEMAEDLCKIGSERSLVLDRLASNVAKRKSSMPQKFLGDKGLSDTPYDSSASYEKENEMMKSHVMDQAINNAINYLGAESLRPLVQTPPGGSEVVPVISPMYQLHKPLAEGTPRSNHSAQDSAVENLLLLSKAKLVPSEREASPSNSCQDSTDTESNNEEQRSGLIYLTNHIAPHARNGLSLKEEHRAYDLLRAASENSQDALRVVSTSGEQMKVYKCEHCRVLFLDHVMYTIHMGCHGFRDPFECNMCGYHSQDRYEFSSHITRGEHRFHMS
T2 sequence (Q96SW2 whole entry): as the sequence (Q96SW2 whole entry) above
T2 sequence (Q16531 whole entry partner): as the sequence (Q16531 whole entry partner) above

Row | Compound | substrate protein remaining % WEE1 [1] | substrate protein remaining % IKZF1 [2] | substrate protein remaining % IKZF2 [3] | substrate protein remaining % IKZF3 [4] | substrate protein remaining % CK1α [5] | substrate protein remaining % GSPT1 [6]
1 | O=C1CCN(N2C(=O)c3ccc(CN4CCC(c5n[nH]c6cc(F)ccc56)CC4)cc3C2=O)C(=O)N1 [GT-07530, 2-(2,4-dioxotetrahydropyrimidin-1(2H)-yl)-5-((4-(6-fluoro-1H-indazol-3-yl)piperidin-1-yl)methyl)isoindoline-1,3-dione] | A (0% ≤ substrate protein remaining % ≤ 80%) | B (80%< substrate protein remaining %≤ 100%) | B (80%< substrate protein remaining %≤ 100%) | B (80%< substrate protein remaining %≤ 100%) | A (0% ≤ substrate protein remaining % ≤ 80%) | A (0% ≤ substrate protein remaining % ≤ 80%)
2 | O=C1CCN(N2Cc3cc(CN4CCN(c5n[nH]c6cc(F)ccc56)CC4)ccc3C2=O)C(=O)N1 [GT-07545, 1-(5-((4-(6-fluoro-1H-indazol-3-yl)piperazin-1-yl)methyl)-1-oxoisoindolin-2-yl)dihydropyrimidine-2,4(1H,3H)-dione] | A (0% ≤ substrate protein remaining % ≤ 80%) | A (0% ≤ substrate protein remaining % ≤ 80%) | B (80%< substrate protein remaining %≤ 100%) | B (80%< substrate protein remaining %≤ 100%) | A (0% ≤ substrate protein remaining % ≤ 80%) | A (0% ≤ substrate protein remaining % ≤ 80%)
3 | O=C1CCN(N2Cc3cc(CN4CCC(c5c[nH]c6ncccc56)CC4)ccc3C2=O)C(=O)N1 [GT-07576, 1-(5-((4-(1H-pyrrolo[2,3-b]pyridin-3-yl)piperidin-1-yl)methyl)-1-oxoisoindolin-2-yl)dihydropyrimidine-2,4(1H,3H)-dione] | A (0% ≤ substrate protein remaining % ≤ 80%) | A (0% ≤ substrate protein remaining % ≤ 80%) | A (0% ≤ substrate protein remaining % ≤ 80%) | B (80%< substrate protein remaining %≤ 100%) | A (0% ≤ substrate protein remaining % ≤ 80%) | A (0% ≤ substrate protein remaining % ≤ 80%)
4 | O=C1CCN(N2Cc3cc(CN4CCC(n5c(=O)[nH]c6cc(F)ccc65)CC4)ccc3C2=O)C(=O)N1 [GT-07579, 1-(5-((4-(5-fluoro-2-oxo-2,3-dihydro-1H-benzo[d]imidazol-1-yl)piperidin-1-yl)methyl)-1-oxoisoindolin-2-yl)dihydropyrimidine-2,4(1H,3H)-dione] | A (0% ≤ substrate protein remaining % ≤ 80%) | A (0% ≤ substrate protein remaining % ≤ 80%) | A (0% ≤ substrate protein remaining % ≤ 80%) | B (80%< substrate protein remaining %≤ 100%) | B (80%< substrate protein remaining %≤ 100%) | A (0% ≤ substrate protein remaining % ≤ 80%)
5 | O=C1CCN(N2C(=O)c3ccc(CN4CC=C(c5c[nH]c6cc(F)ccc56)CC4)cc3C2=O)C(=O)N1 [GT-07580, 2-(2,4-dioxotetrahydropyrimidin-1(2H)-yl)-5-((4-(6-fluoro-1H-indol-3-yl)-3,6-dihydropyridin-1(2H)-yl)methyl)isoindoline-1,3-dione] | A (0% ≤ substrate protein remaining % ≤ 80%) | A (0% ≤ substrate protein remaining % ≤ 80%) | A (0% ≤ substrate protein remaining % ≤ 80%) | A (0% ≤ substrate protein remaining % ≤ 80%) | B (80%< substrate protein remaining %≤ 100%) | A (0% ≤ substrate protein remaining % ≤ 80%)
